Measurements as given in patent publication US20200038479A1, “WOUND HEALING AGENT HAVING ANTIMICROBIAL ACTIVITY AND WOUND HEALING ACCELERATING ACTIVITY” (MARUHA NICHIRO CORPORATION, priority 2016, published 2020).
Entries after “also recorded” stand apart in the source; their conditions may differ.

Assays:
[1] = system: Staphylococcus aureus; experiment: Antimicrobial activity test (JIS L 1902:2015 / ISO 20743) on standard cloth; format: cell-based; conditions: cultured 37° C. for 18 to 24 hours
Excerpt: The antimicrobial activity of the protamine component can be evaluated based on an antimicrobial activity value described in “JIS L 1902:2015 Textiles—Determination of antibacterial activity and efficacy of textile products” (ISO 20743), and when a target material has an antimicrobial activity value of 2.0 or more, it can be determined to have the antimicrobial activity.
A standard cloth was cut into an appropriate size with a mass of 0.40 g±0.05 g. Sterile water (a control sample) and each of the test sample solutions (protamine hydrochloride: manufactured by Maruha Nichiro Corporation, protamine sulfate: manufactured by Maruha Nichiro Corporation, silver sulfate: manufactured by Wako Pure Chemical Industries Ltd.) were prepared and filtered, separately.
A Staphylococcus aureus suspension was inoculated by 0.2 mL each in separate several portions on each test piece. Immediately after the inoculation, 20 mL of a saline for washing out was added to some vials for washing out Staphylococcus aureus cells, and then a viable cell count was measured. The rest of the vials without washing-out was cultured at 37° C.±2° C. for 18 to 24 hours. After the cultivation, 20 mL of a saline for washing out was added to each vial for washing out Staphylococcus aureus cells, and then a viable cell count was measured. In accordance with the formula (1), an antimicrobial activity value was calculated, and a sample having an antibacterial activity value of 2.0 or more was determined as having the antimicrobial activity.
A=(log Ct−log C0)−(log Tt−log T0) Formula (1)
A: antibacterial activity value log Ct: arithmetic average common logarithm of viable cell count in a control sample obtained after cultivation for 18 to 24 hours log C0: arithmetic average common logarithm of viable cell count in a control sample obtained immediately after inoculation log Tt: arithmetic average common logarithm of viable cell count in a test sample obtained after cultivation for 18 to 24 hours log T0: arithmetic average common logarithm of viable cell count in a test sample obtained immediately after inoculation

[2] = system: full-thickness skin incision wound; experiment: Healing test, full-thickness skin incision wound; format: in vivo, rat; conditions: 1.25% by mass on substrate, changed daily, day 1 to 4 of observation, compared with control group and silver sulfate group
Description: A substrate (Jintan Medicare sterile pad T, manufactured by Morishita Jintan Co., Ltd.) was prepared, and each of filtered test solutions (protamine hydrochloride, protamine sulfate and silver sulfate) was homogeneously applied to each substrate to obtain a solid content of the active ingredient of 1.25% by mass. In a flank region on either side of an eight-week-old BrlHan: WIST@Jcl (GALAS) rat (four rats used in each test group), a full-thickness skin incision wound with a size of 2.5 cm×2.5 cm was created.
The substrate and the dressing were changed once every day, the incision wound was photographed with a digital camera at the time of the change, and then, an area of the wound was obtained by using image analysis software (Image J, National Institutes of Health, USA). Assuming that the area of the wound on the day of creating the wound (day 0 of observation) was 100%, an area ratio (%) of the wound on each observation date was obtained.

[3] = system: Staphylococcus aureus; experiment: Examination of sterilization treatment: antimicrobial activity test after EOG or γ-ray sterilization; format: cell-based; conditions: 1.25% by mass
Description: A protamine hydrochloride powder and a protamine sulfate powder were respectively enclosed in sterilization bags (roll bag for IDS, manufactured by Hogy Medical Co., Ltd.). For a control group (not treated), the sterilization treatment was not performed, and the rest was subjected to the EOG sterilization (EOG concentration: 20%, sterilization time: 4 hours, temperature: 55° C.) and the γ-ray sterilization (30 kGy). The standard cloth was cut into an appropriate size with a mass of 0.40 g±0.05 g. Each of the test powders (protamine hydrochloride and protamine sulfate) was dissolved in sterile water, separately, and then the resultant was filtered. […] A Staphylococcus aureus suspension was inoculated by 0.2 mL each in separate several portions on each test piece. Immediately after the inoculation, 20 mL of a saline for washing out was added to some vials for washing out Staphylococcus aureus cells, and then a viable cell count was measured. The rest of the vials without washing-out was cultured at 37° C.±2° C. for 18 to 24 hours. After the cultivation, 20 mL of a saline for washing out was added to each vial for washing out Staphylococcus aureus cells, and then a viable cell count was measured.

[4] = 0.125% by mass on standard cloth
[5] = 1.25% by mass on standard cloth
[6] = EOG Sterilization (20%, 4 hours, 55° C.)

Row | Compound | Antibacterial Activity Value [1, 4] | Antibacterial Activity Value [1, 5] | wound healing accelerating effect (area ratio of the wound) [2] | wound healing accelerating effect (area ratio of the wound) ([2]; hydrochloride) | Antibacterial Activity Value [3, 6] | Antibacterial Activity Value ([3]; Not Treated) | Antibacterial Activity Value ([3]; γ-ray Sterilization (30 kGy))
1 | O=S(=O)([O-])[O-].[Ag+].[Ag+] [Silver Sulfate, silver sulfate, reference compound] | ≥2.0 | ≥2.0 | the wound healing accelerating effect was found in protamine hydrochloride and protamine sulfate alone | – | – | – | –
2 | protamine hydrochloride | ≥2.0 | ≥2.0 | – | exhibit a wound healing accelerating effect; also recorded: an effect of accelerating wound healing was observed | ≥2.0 | ≥2.0 | ≥2.0
3 | protamine sulfate | ≥2.0 | ≥2.0 | exhibit a wound healing accelerating effect; also recorded: an effect of accelerating wound healing was observed | – | ≥2.0 | ≥2.0 | ≥2.0
